We go through one molecule from US12396977B2, “Composition for treating degenerative brain diseases, containing 2-pentylfuran as active ingredient” (DAEGU GYEONGBUK INSTITUTE OF SCIENCE AND TECHNOLOGY, priority 2019, dated 2025).

One test has as its target T1, Olfr110 (Mus musculus, UniProt A2RT31).
T1 construct: Full-length odorant receptor genes from mouse and human genomic DNA were amplified using appropriate primers; Lucy (N); Flag (N); Rho (N); expressed in transfected cells; host or cells: Hana3A cells, co-transfected with RTP1S, pCRELuc and pRL-SV40
T1 sequence (A2RT31 1-317): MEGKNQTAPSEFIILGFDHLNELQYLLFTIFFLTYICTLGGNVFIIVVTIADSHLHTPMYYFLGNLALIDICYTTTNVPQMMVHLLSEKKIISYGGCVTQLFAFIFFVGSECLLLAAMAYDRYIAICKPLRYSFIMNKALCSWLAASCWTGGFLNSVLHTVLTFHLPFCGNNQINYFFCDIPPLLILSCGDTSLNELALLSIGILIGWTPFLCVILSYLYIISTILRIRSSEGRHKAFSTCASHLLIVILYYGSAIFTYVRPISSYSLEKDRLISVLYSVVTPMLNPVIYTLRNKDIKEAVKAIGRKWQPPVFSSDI
Put plainly: Luciferase assay in Hana3A cells, Olfr110. It is filed as cell-based.

Test [1] relates to Hana3A cells expressing Olfr110. The test can be described thus: Boyden chamber chemotaxis, Hana3A cells expressing Olfr110. It counts as cell-based. As to conditions: 2-PF 10, 100, 1000 uM. The method, then: (§1) Cell chemotaxis was measured using a multiwell Boyden chamber. More specifically, a polycarbonate filter (8 μm pore; #101-8; Neuroprobe) was coated with […] fibronectin in PBS (Sigma-Aldrich) for 2 hours, and the coated filter was placed in a Boyden chamber. In addition, the bottom side of the plate was filled with serum-free DMEM containing 2-pentylfuran or a culture supernatant. Next, microglia or Hana3A cells were transfected with an odorant receptor structure and then suspended in serum-free DMEM. Subsequently, microglia and Hana3A cells were allowed to stand at 37° C. for 4 hours and 8 hours, respectively. Cells sinking to the bottom were fixed with 4% PFA, and stained with hematoxylin for 10 minutes. Fixed cells were counted under an optical microscope in 5 randomly selected fixed […] fields (200×) using a scored eyepiece. The chemical chemotaxis index was defined as the number of migrating cells using an untreated group as a standard.

For test [2], the system named is primary microglia. Put plainly: Boyden chamber chemotaxis of primary microglia. It is filed as cell-based, mouse. The conditions noted are these: 100, 300, and 500 μM. The method, then: as §1
Another test deals with microglia. The test can be described thus: Ex vivo phagocytosis of microglia in brain slices (time-lapse confocal). Details: species or system mouse. The conditions noted are these: brain slices of CX3CR1 GFP/+ mice. The method, then:
In this experiment, in order to examine the phagocytotic action of microglia, the brain of a 9-week-old male CX3CR1^GFP/+ mouse was cut to a thickness of 150 μm using a vibratome (Leica VT1200) and then stored in an ice-cooled artificial cerebrospinal fluid (aCSF: 120 mM NaCl, […], 25 mM NaHCO3, 1.25 mM NaH2PO4, 5 mM KCl, 1 mM CaCl2, 1 mM MgSO4, […], pH7.4). Thereafter, the sliced brain was cultured for removal of cell debris. Oxygenated aCSF was pretreated in a perfusion chamber at 37° C. for 2 hours. Subsequently, before culture, the sliced brain was cultured with 500 μl of aCSF containing 9.10×10^7 microspheres ([…]; #17458; Polysciences) and covered with a custom-made nylon grid. Time lapse videos were taken at intervals of 1 minute for 92 minutes using a confocal microscope. The number of phagocytosing microglia was calculated from the images.

Test [3] relates to primary microglia. The test can be described thus: cAMP ELISA in primary microglia. It is filed as cell-based, mouse. The conditions noted are these: 2-PF 0, 100, 500 μM. The method, then: Primary microglia were inoculated into 48 well plates (2×10^5 cells/well) and treated with 30 μM forskolin (#F3917, Sigma Aldrich), or 2-PF (10, 100, 500 μM) for 30 minutes. In order to confirm the effect of an inhibitor, 1 mM SQ22536 (#17318-31-9; Calbiochem) was first pretreated for 30 minutes. The cells were lysed in a solution of 0.1 M of HCl with 1% Triton X 100 for 10 minutes, and the lysate was centrifuged at 600×g for 2 minutes. The supernatant was directly used for cAMP analysis using a cAMP ELISA kit (Enzo Life Science) according to the manufacturer's protocol. The optical density at 405 nm was measured using a VersaMax microplate reader (Molecular Devices).

Test [4] deals with primary microglia. The test can be described thus: Western blot of phosphorylated signalling proteins in primary microglia. It counts as cell-based, mouse. The conditions noted are these: 0, 2, 5, 10, 20, 30 minutes after treatment. The method, then:
Cells and tissues were prepared using the T-PER® reagent (#78510; Thermo Fisher Scientific) with protease inhibitors (#04-693-116-001; Roche Molecular Diagnostics), DMSF (Sigma-Aldrich) and lysed using the MagNA Lyser (Roche Molecular Diagnostics). A total protein extract was quantified by the Bradford assay. The sample was dissolved in 7.5% SDS-PAGE or 4 to 20% gradient mini-PROTEIN TGX Precast Gels (#456-1064; Bio-Rad Laboratories), and then blotted onto nitrocellulose membranes (#10600002; GE Healthcare). The membrane was then blocked in 5% skimmed milk powder, TBST, 0.1% TWEEN® 20 (#P9416; Sigma-Aldrich) and Tris-buffered saline for 1 hour, and then incubated with primary antibodies at 4° C. overnight. The antibodies are as follows: Olfr110 (36 kDa; 1:1,000; #ab177327; Abcam), anti rhodopsin (39 kDa; 1:1,000; #MABN15; Millipore), CREB (43 kDa; 1:1,000; #9197; Cell Signaling Technology), phospho-CREB (43 kDa; 1:1,000; #9198; Cell Signaling Technology), ERK (44 kDa; 1:1,000; #sc094; Santa Cruz), phospho-ERK (42, 44 kDa; 1:1,000; #sc-7383; Santa Cruz), phospho-Akt (60 kDa; 1:500; sc-293125; Santa Cruz), phospho-JNK (46, 54 kDa; 1:500; sc-6254; Santa Cruz), phosphor-p38 (38 kDa; 1:1,000; sc-7973; Santa Cruz), or beta-Actin (45 kDa; 1:10,000; #4967; Cell Signaling Technology). Furthermore, an isotype-matched horseradish peroxidase-conjugated secondary antibody was used at 1:100,000 with anti-rabbit in TBST (#711-035-152; Jackson ImmunoResearch) and 1:40,000 with anti-mouse (#715-035-150; Jackson ImmunoResearch) at room temperature for 2 hours. As an immunoreactive protein band, SuperSignal™ West Pico Chemiluminescent Substrate (#34080; Thermo Fisher Scientific) was used.
On the technique in general: A western blot detects proteins with antibodies after separation by electrophoresis.

Entries after “also recorded” stand apart in the source; their conditions may differ.

As for `CCCCCc1ccco1` [2-PF, 2-pentylfuran], the “mode of action at Olfr110” value at Olfr110 was “agonist”. Also, the “reactivity of Olfr110 (relative luciferase activity)” value on Olfr110 (Hana3A cells) is “particularly strong reactivity; also recorded: strongest reactivity”. Also, the “mobility (chemotaxis) of Olfr110-expressing Hana3A cells” value in test [1] is reported as “increased in mobility in a concentration-dependent manner”. Besides, the chemotaxis of microglia result with primary microglia [2] was “significantly increased in a concentration-dependent manner”. In addition, the “ex vivo phagocytosis activity of microglia” value in the test on microglia was “increased”. Also, the “cAMP concentration in primary microglia” value in the test with primary microglia [3] is on record as “increased by 2-PF treatment in a concentration dependent manner”. In addition, the “phosphorylation levels of ERK, p38, JNK, and Akt” value with primary microglia [4] is “increased from 2 minutes and stopped increasing at 20 minutes”.
